Reference: the CombiSolv-Exp solvation set (Vermeire and Green 2021)

Experiment: solvent given as SMILES
[1] = in CCCCCCCC(=O)OCC(COC(=O)CCCCCCC)OC(=O)CCCCCCC

CC=C(C)C
solvation free energy, 298 K (in BrC(Br)C(Br)Br): -2.68 kcal/mol
solvation free energy, 298 K (in C1=Cc2ccccc2C1): -3.05 kcal/mol
solvation free energy, 298 K (in C=CCCCCCCCCCCCCCC): -2.97 kcal/mol
solvation free energy, 298 K (in CC1COC(=O)O1): -2.09 kcal/mol
solvation free energy, 298 K (in CC(=O)N(C)C): -2.58 kcal/mol
solvation free energy, 298 K (in CC(=O)c1ccccc1): -2.79 kcal/mol
solvation free energy, 298 K (in CC(C)(C)O): -3.22 kcal/mol
solvation free energy, 298 K (in CCCCC#N): -2.9 kcal/mol
solvation free energy, 298 K (in CCCCCC#N): -2.96 kcal/mol
solvation free energy, 298 K (in CCNC(C)=O): -2.69 kcal/mol
solvation free energy, 298 K (in CN1CCCC1=O): -2.51 kcal/mol
solvation free energy, 298 K (in CN(C)C=O): -2.56 kcal/mol
solvation free energy, 298 K (in CN(C)P(=O)(N(C)C)N(C)C): -2.61 kcal/mol
solvation free energy, 298 K (in CNC(C)=O): -2.54 kcal/mol
solvation free energy, 298 K (in CNC=O): -2.17 kcal/mol
solvation free energy, 298 K (in CS(C)=O): -1.97 kcal/mol
solvation free energy, 298 K (in Cc1cccc2ccccc12): -2.88 kcal/mol
solvation free energy, 298 K (in Cc1cccc(O)c1): -2.63 kcal/mol
solvation free energy, 298 K (in ClC(Cl)C(Cl)Cl): -3.16 kcal/mol
solvation free energy, 298 K (in Clc1cccc2ccccc12): -2.8 kcal/mol
solvation free energy, 298 K (in N#CCCCC#N): -1.67 kcal/mol
solvation free energy, 298 K (in N#CCCCCC#N): -1.98 kcal/mol
solvation free energy, 298 K (in N#CCc1ccccc1): -2.48 kcal/mol
solvation free energy, 298 K (in N#Cc1ccccc1): -2.89 kcal/mol
solvation free energy, 298 K (in NCc1ccccc1): -2.67 kcal/mol
solvation free energy, 298 K (in Nc1ccccc1): -2.3 kcal/mol
solvation free energy, 298 K (in O): 1.37 kcal/mol
solvation free energy, 298 K (in O=C1CCCCC1): -3.09 kcal/mol
solvation free energy, 298 K (in O=C(O)C(Cl)Cl): -2.63 kcal/mol
solvation free energy, 298 K (in OCCO): -0.76 kcal/mol
solvation free energy, 298 K (in OCc1ccccc1): -2.44 kcal/mol

CN(C)C=O
solvation free energy, 298 K (in C1CCOC1): -5.99 kcal/mol
solvation free energy, 298 K (in C1COCCO1): -6.17 kcal/mol
solvation free energy, 298 K (in CC(C)=O): -6.43 kcal/mol
solvation free energy, 298 K (in CCC(C)=O): -6.41 kcal/mol
solvation free energy, 298 K (in CCCCCCCCCCCCCCCC): -3.88 kcal/mol
solvation free energy, 298 K (in CCCCCCCCO): -5.95 kcal/mol
solvation free energy, 298 K (in CCOC(C)=O): -6.1 kcal/mol
solvation free energy, 298 K (in ClC(Cl)(Cl)Cl): -4.73 kcal/mol
solvation free energy, 298 K (in O): -7.77 kcal/mol
solvation free energy, 298 K (in [2H]O[2H]): -7.47 kcal/mol
solvation free energy, 298 K (in c1ccccc1): -6.19 kcal/mol

CCC1(c2ccccc2)C(=O)NC(=O)NC1=O
solvation free energy, 298 K (in O): -15.4 kcal/mol

CCOC(=O)c1ccc(O)cc1
solvation free energy, 298 K (in O): -9.2 kcal/mol

CC1=CC(=O)C(C(C)C)CC1 (stereo unspecified)
solvation free energy, 298 K (in O): -4.51 kcal/mol

CSC
solvation free energy, 298 K (in C=C(C)CC(C)(C)C): -3.04 kcal/mol
solvation free energy, 298 K (in C=CCCCC): -3.07 kcal/mol
solvation free energy, 298 K (in CC(C)CC(C)(C)C): -2.9 kcal/mol
solvation free energy, 298 K (in CCCCCC): -2.97 kcal/mol
solvation free energy, 298 K (in ClC(Cl)(Cl)Cl): -3.6 kcal/mol
solvation free energy, 298 K (in ClC(Cl)Cl): -4.08 kcal/mol
solvation free energy, 298 K (in O): -1.5 kcal/mol

FC(F)C(F)(F)F
solvation free energy, 298 K [1]: -0.79 kcal/mol
solvation free energy, 298 K (in CCCCCCCCC): -0.39 kcal/mol
solvation free energy, 298 K (in CCCCCCCCO): -0.57 kcal/mol
solvation free energy, 298 K (in CN(C)C=O): -1.54 kcal/mol
solvation free energy, 298 K (in O): 1.45 kcal/mol

CNC1CCCCC1
solvation free energy, 298 K (in C1CCCCC1): -6.05 kcal/mol

CC(C)CBr
solvation free energy, 298 K (in C=CCCCCCCCCCCCCCC): -3.98 kcal/mol
solvation free energy, 298 K (in O): -0.03 kcal/mol

C1COCCOCCOCCOCCOCCO1
solvation free energy, 298 K (in Cc1cccc(C)c1): -12.9 kcal/mol
solvation free energy, 298 K (in O): -15.6 kcal/mol

C1CCNC1
solvation free energy, 298 K (in C1CCCCC1): -4.19 kcal/mol
solvation free energy, 298 K (in CCCCCCCCO): -5.55 kcal/mol
solvation free energy, 298 K (in O): -5.48 kcal/mol

N#CCc1ccccc1
solvation free energy, 298 K (in CCCCCCCCCCCCCCCC): -6.06 kcal/mol
solvation free energy, 298 K (in O): -5.05 kcal/mol

CCC(CC)CC
solvation free energy, 298 K (in C=CCCCCCCCCCCCCCC): -4.07 kcal/mol
solvation free energy, 298 K (in CC#N): -3.02 kcal/mol
solvation free energy, 298 K (in O): 2.61 kcal/mol

COc1nc(NC(C)C)nc(NC(C)C)n1
solvation free energy, 298 K (in O): -9.69 kcal/mol

Br
solvation free energy, 298 K (in CCCC): -1.23 kcal/mol
solvation free energy, 298 K (in CCCCCC): -1.19 kcal/mol
solvation free energy, 298 K (in CCCCCCCC): -1.11 kcal/mol
solvation free energy, 298 K (in CCCCCCCCCC): -1.09 kcal/mol

O=C(O)Cc1ccccc1
solvation free energy, 298 K (in C=CCCCCCCC=C): -7.39 kcal/mol
solvation free energy, 298 K (in CCOC(C)=O): -11.1 kcal/mol
solvation free energy, 298 K (in O): -8.74 kcal/mol

FC(F)(F)Cl
solvation free energy, 298 K (in CCCCCCC): -0.6 kcal/mol
solvation free energy, 298 K (in CCCCCCCC): -0.53 kcal/mol
solvation free energy, 298 K [1]: -0.03 kcal/mol
solvation free energy, 298 K (in CCCCCCCCC): -0.46 kcal/mol
solvation free energy, 298 K (in CCCCCCCCO): -0.06 kcal/mol
solvation free energy, 298 K (in CN1CCCC1=O): 0.23 kcal/mol
solvation free energy, 298 K (in CN(C)C=O): 0.08 kcal/mol
solvation free energy, 298 K (in ClC(Cl)(Cl)Cl): -0.6 kcal/mol
solvation free energy, 298 K (in O): 2.31 kcal/mol

O=C(Oc1ccccc1)Oc1ccccc1
solvation free energy, 298 K (in CC(C)CO): -11.2 kcal/mol
solvation free energy, 298 K (in CC(C)O): -11.3 kcal/mol
solvation free energy, 298 K (in CCC(C)O): -11.2 kcal/mol
solvation free energy, 298 K (in CCCCO): -11.4 kcal/mol
solvation free energy, 298 K (in CCCO): -11.5 kcal/mol
solvation free energy, 298 K (in CCO): -11.6 kcal/mol
solvation free energy, 298 K (in CO): -11.8 kcal/mol

CCC(C)C(C)C (stereo unspecified)
solvation free energy, 298 K (in C=CCCCCCCCCCCCCCC): -3.97 kcal/mol
solvation free energy, 298 K (in CC#N): -3.2 kcal/mol

Clc1cc(Cl)c(-c2ccc(Cl)c(Cl)c2Cl)cc1Cl
solvation free energy, 298 K (in CCCCCCCCO): -13.2 kcal/mol
solvation free energy, 298 K (in O): -3.34 kcal/mol

C=CC(C)CC (stereo unspecified)
solvation free energy, 298 K (in CC#N): -2.7 kcal/mol

Cc1ccc([N+](=O)[O-])cc1
solvation free energy, 298 K (in O): -4.96 kcal/mol

CCCCCOC(=O)CC
solvation free energy, 298 K (in O): -2.11 kcal/mol
